Results on eleven compounds are retold here after patent US20260070927A1, “INDAZOLE MACROCYCLES FOR THE TREATMENT OF AUTOIMMUNE DISEASE” (Hoffmann-La Roche Inc., priority 2022, published 2026).

In series [1] the target is human stimulator of interferon genes (STING) (139-379) (Homo sapiens (Human), UniProt Q86WV6). Put plainly: Microliter plate-based TR-FRET competition-binding assay for binders of STING. The settings on record: Alexa488 probe, read-out: FRET_IC50. As for the experimental part:
This is the competition-binding assay to test the compounds' potency to the C-terminal Domain (CTD) and ligand-binding domain of human stimulator of interferon genes (STING). STING (139-379, Q86WV6, http://www.uniprot.org/uniprot) recombinant protein (in 20 mM Tris, 150 mM NaCl, pH 8.0, and expression in Escherichia coli (E. coli) BL21 (DE3)) with a C-terminal flag-tag was employed for the assay. When Alexa-488 labeled active site probe (refer to patent WO2017/175156 A1) bounds to STING (139-379), it accepts the 485 nm emission from Tb-M2-Flag-STING and results in an increase in fluorescence at 520 nm. Compounds that compete for the probe-binding site will reduce 520 nm signal. The assay was run in proxiplate-384 plus (PerkinElmer, cat: 60150300) containing of 2.5 nM STING, 2.5 nM M2-Tb (Cisbio, 61FG2TLA, Lot: 17 A) and 250 nM Alexa488 probe. Plates were centrifuged for 1 min at 1000 rpm, incubated for 30 min at room temperature, and then measured the dual fluorescence emission at 520 nm/485 nM following 320 nm laser excitation on an Envision plate reader (Perkin-Elmer). The compounds' effect on the STING binding is detected by measuring ratiometric fluorescence from time-resolved FRET. The percentage of inhibition of at each compound concentration is calculated on the basis of their changes of TR-FRET efficiency relative to the change of TR-FRET caused by positive control 2′3′cGAMP (Sigma, cat: SML1229).

Another series has as its system STING (IFN-β in hPBMC). Put plainly: hPBMC cytokine functional assay (IFN-β decrease after Baculovirus stimulation). It counts as cell-based. The settings on record: Homo sapiens, Baculovirus MOI 40, 24 hours, read-out: hPBMC_IC50. Here is the method:
The inhibition of STING by compounds could be measured by the decrease of IFN-β in hPBMC, which is stimulated by a double stranded DNA virus Baculoviurs (Purchased from Genescript, pCMV-Dest Vector virus generation P2 BV stock virus, Sf-900 II medium with 5% FBS, Lot C9835DK230-2/P4DL001). Frozen hPBMC cells (purchased from Stemcell Technologies, cat number is 70025, Lot 191070803C) were thawed at 37° C. water bath, then cells were re-suspended in 50 ml tube using 20 ml Cell culture medium, and then centrifuged for 5 min at 2000 rpm before the supernatant was removed carefully. The cells were re-suspended in culture medium (RPMI-1640 with 1.5 g/L NaHCO3, 4.5 g/L glucose, 10 mM HEPES and 1 mM Na-pyruvate, 10% HI-FBS); 65 μL of the cell suspension was dispensed into 384 well plate (70K cells/well) by Multidrop Combi with at least 3 hours incubation at 37° C., 5% CO2 cell incubator.
Then 4 μL of compound solution per well (final 0.5% DMSO) was transferred by Agilent Bravo followed by infection with 11 μL of Baculovirus at a final MOI of 40. The level of IFN-β secreted in the supernatant of hPBMC was determined after 24 hours of incubation at 37° C. cell incubator by human IFN-β HTRF assay (Cisbio, cat: 62HIFNBPEH) following the manufacture's instruction. CellTiter-Glo kit (Promega, cat: G7573) was applied for the cell viability evaluation using Envision.

Series [2] in a line: Metabolic (liver microsomal) stability assay. To be noted: human liver microsomes, 1 μM test compound. In general terms: Liver microsomes are a subcellular fraction often used to study metabolism.
Procedure: The liver microsomal stability assay is used for early assessment of metabolic stability of a test compound in liver microsomes.
Liver microsomes were preincubated with test compound for 10 minutes at 37° C. in 100 mM potassium phosphate buffer, pH 7.4. The reactions were initiated by adding NADPH regenerating system. The final incubation mixtures contained 1 μM test compound, 0.5 mg/mL liver microsomal protein, 1 mM MgCl2, 1 mM NADP, 1 unit/mL isocitric dehydrogenase and 6 mM isocitric acid in 100 mM potassium phosphate buffer, pH 7.4. After incubation times of 0, 3, 6, 9, 15 and 30 minutes at 37° C., 300 μL of cold acetonitrile (including internal standard) was added to 100 μL incubation mixture to terminate the reaction. Following precipitation and centrifugation, the amount of compound remaining in the samples were determined by LC-MS/MS. Controls of no NADPH regenerating system at zero and 30 minutes were also prepared and analyzed.

SMILES strings stand for the structures.

human stimulator of interferon genes (STING) (139-379), sequence (Q86WV6 139-379): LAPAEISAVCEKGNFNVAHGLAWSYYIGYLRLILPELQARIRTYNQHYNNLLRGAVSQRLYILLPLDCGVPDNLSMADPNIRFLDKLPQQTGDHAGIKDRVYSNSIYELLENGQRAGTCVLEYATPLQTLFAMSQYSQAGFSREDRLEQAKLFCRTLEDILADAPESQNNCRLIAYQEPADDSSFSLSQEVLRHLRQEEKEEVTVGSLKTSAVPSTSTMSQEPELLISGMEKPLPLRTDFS

Turning to `COc1cc(F)ccc1-n1ncc2c(N3C[C@@H]4C[C@H]3C(=O)N(C)CCCc3c5c(cc(F)cc5nn3C)-c3ccnc(n3)O4)ncnc21` [Example 12, (8S,11S)-22-fluoro-10-[1-(4-fluoro-2-methoxy-phenyl)pyrazolo[3,4-d]pyrimidin-4-yl]-13,18-dimethyl-7-oxa-5,10,13,18,19,26-hexazapentacyclo[15.6.1.1^2,6.1^8,11.0^20,24]hexacosa-1(23),2(26),3,5,17(24),19,21-heptaen-12-one], the IC50 in series [1] turned out to be 18 nM; in the series with STING (IFN-β in hPBMC) it was 1410 nM. In series [2], the “Clearance of human microsome” value was 13.2 mL/min/kg.

With `Cn1cnc(CN2CCCc3c4c(cccc4nn3C)-c3cccc(c3)O[C@H]3C[C@@H](C2=O)N(c2ncnc4c2cnn4-c2ccc(F)cc2F)C3)n1` [Example 16, (8S,11S)-10-[1-(2,4-difluorophenyl)pyrazolo[3,4-d]pyrimidin-4-yl]-18-methyl-13-[(1-methyl-1,2,4-triazol-3-yl)methyl]-7-oxa-10,13,18,19 tetrazapentacyclo[15.6.1.1^2,6.1^8,11.0^20,24]hexacosa-1(23),2(26),3,5,17(24),19,21-heptaen-12-one], the results for the IC50 (in series [1]; in the series on STING (IFN-β in hPBMC)) were 3.1 nM and 384 nM, respectively. The “Clearance of human microsome” value in series [2] came to 15.9 mL/min/kg.

With `Cn1nc2cccc3c2c1CCCN(CC1CC1)C(=O)[C@@H]1C[C@@H](CN1c1ncnc2c1cnn2-c1ccc(F)cc1F)Oc1cc-3ncn1` [Example 18, (8S,11S)-13-(cyclopropylmethyl)-10-[1-(2,4-difluorophenyl)pyrazolo[3,4-d]pyrimidin-4-yl]-18-methyl-7-oxa-3,5,10,13,18,19-hexazapentacyclo[15.6.1.1^2,6.1^8,11.0^20,24]hexacosa-1(23),2(26),3,5,17(24),19,21-heptaen-12-one], the figures for the IC50 (in series [1]; in the series with STING (IFN-β in hPBMC)) were 12.5 nM and 491 nM, respectively. Further, the “Clearance of human microsome” value in series [2] turned out to be 12.4 mL/min/kg.

`Cn1nc2cccc3c2c1CCCN(CC1CC1)C(=O)[C@@H]1C[C@@H](CN1c1ncnc2c1cnn2-c1ccc(F)cc1F)Oc1nccc-3n1` [Example 19, (8S,11S)-13-(cyclopropylmethyl)-10-[1-(2,4-difluorophenyl)pyrazolo[3,4-d]pyrimidin-4-yl]-18-methyl-7-oxa-5,10,13,18,19,26-hexazapentacyclo[15.6.1.1^2,6.1^8,11.0^20,24]hexacosa-1(23),2(26),3,5,17(24),19,21-heptaen-12-one]: the IC50 in series [1] stood at 13.1 nM; in the series on STING (IFN-β in hPBMC), 976 nM. In addition, the “Clearance of human microsome” value in series [2] was determined as 10.0 mL/min/kg.

Consider `Cn1nc2cccc3c2c1CCCN(CCO)C(=O)[C@@H]1C[C@@H](CN1c1ncnc2c1cnn2-c1ccc(F)cc1F)Oc1cccc-3c1` [Example 22, (8S,11S)-10-[1-(2,4-difluorophenyl)pyrazolo[3,4-d]pyrimidin-4-yl]-13-(2-hydroxyethyl)-18-methyl-7-oxa-10,13,18,19-tetrazapentacyclo[15.6.1.1^2,6.1^8,11.0^20,24]hexacosa-1(23),2(26),3,5,17(24),19,21-heptaen-12-one], for which the IC50 came out at 0.2 nM in series [1] and 264 nM with STING (IFN-β in hPBMC). The “Clearance of human microsome” value in series [2] is listed as 15.5 mL/min/kg.

With `CN(C)CCN1CCCc2c3c(cccc3nn2C)-c2cccc(c2)O[C@H]2C[C@@H](C1=O)N(c1ncnc3c1cnn3-c1ccc(F)cc1F)C2` [Example 24, (8S,11S)-10-[1-(2,4-difluorophenyl)pyrazolo[3,4-d]pyrimidin-4-yl]-13-[2-(dimethylamino)ethyl]-18-methyl-7-oxa-10,13,18,19-tetrazapentacyclo[15.6.1.1^2,6.1^8,11.0^20,24]hexacosa-1(23),2(26),3,5,17(24),19,21-heptaen-12-one], the IC50 worked out at 8.2 nM in series [1] and 711 nM in the series with STING (IFN-β in hPBMC). Further, the “Clearance of human microsome” value in series [2] stood at 14.9 mL/min/kg.

`Cn1nc2cccc3c2c1CCCN(CCCN1CC2(COC2)C1)C(=O)[C@@H]1C[C@@H](CN1c1ncnc2c1cnn2-c1ccc(F)cc1F)Oc1cccc-3c1` [Example 31, (8S,11S)-10-[1-(2,4-difluorophenyl)pyrazolo[3,4-d]pyrimidin-4-yl]-18-methyl-13-[3-(2-oxa-6-azaspiro[3.3]heptan-6-yl)propyl]-7-oxa-10,13,18,19-tetrazapentacyclo[15.6.1.1^2,6.1^8,11.0^20,24]hexacosa-1(23),2(26),3,5,17(24),19,21-heptaen-12-one]: the IC50 amounted to 7.2 nM in series [1] and 517 nM in the series on STING (IFN-β in hPBMC). For the same compound, the “Clearance of human microsome” value in series [2] was 12.4 mL/min/kg.

Regarding `CN1CCN(CCCN2CCCc3c4c(cccc4nn3C)-c3cccc(c3)O[C@H]3C[C@@H](C2=O)N(c2ncnc4c2cnn4-c2ccc(F)cc2F)C3)CC1` [Example 32, (8S,11S)-10-[1-(2,4-difluorophenyl)pyrazolo[3,4-d]pyrimidin-4-yl]-18-methyl-13-[3-(4-methylpiperazin-1-yl)propyl]-7-oxa-10,13,18,19-tetrazapentacyclo[15.6.1.1^2,6.1^8,11.0^20,24]hexacosa-1(23),2(26),3,5,17(24),19,21-heptaen-12-one], the IC50 was determined as 3.2 nM in series [1] and 1100 nM with STING (IFN-β in hPBMC). Also, the “Clearance of human microsome” value in series [2] is on record as 11.5 mL/min/kg.

Consider `CN1CC2CC1CN2CCCN1CCCc2c3c(cccc3nn2C)-c2cccc(c2)O[C@H]2C[C@@H](C1=O)N(c1ncnc3c1cnn3-c1ccc(F)cc1F)C2` [Example 34, (8S,11S)-10-[1-(2,4-difluorophenyl)pyrazolo[3,4-d]pyrimidin-4-yl]-18-methyl-13-[3-(5-methyl-2,5-diazabicyclo[2.2.1]heptan-2-yl)propyl]-7-oxa-10,13,18,19-tetrazapentacyclo[15.6.1.1^2,6.1^8,11.0^20,24]hexacosa-1(23),2(26),3,5,17(24),19,21-heptaen-12-one], for which the IC50 in series [1] turned out to be 7 nM; in the series with STING (IFN-β in hPBMC), 2490 nM. Moreover, the “Clearance of human microsome” value in series [2] is 6.1 mL/min/kg.

As for `Cn1nc2cccc3c2c1CCCN(CCCn1cnnn1)C(=O)[C@@H]1C[C@@H](CN1c1ncnc2c1cnn2-c1ccc(F)cc1F)Oc1cccc-3c1` [Example 36, (8S,11S)-10-[1-(2,4-difluorophenyl)pyrazolo[3,4-d]pyrimidin-4-yl]-18-methyl-13-[3-(tetrazol-1-yl)propyl]-7-oxa-10,13,18,19-tetrazapentacyclo[15.6.1.1^2,6.1^8,11.0^20,24]hexacosa-1(23),2(26),3,5,17(24),19,21-heptaen-12-one], the IC50 in series [1] came out at 1.3 nM; with STING (IFN-β in hPBMC) it was 1570 nM. The “Clearance of human microsome” value in series [2] came out at 11.9 mL/min/kg.

Take `Cn1nc2cccc3c2c1CCCN(CCC(C)(C)O)C(=O)[C@@H]1C[C@@H](CN1c1ncnc2c1cnn2-c1ccc(F)cc1F)Oc1cccc-3c1` [Example 40, (8S,11S)-10-[1-(2,4-difluorophenyl)pyrazolo[3,4-d]pyrimidin-4-yl]-13-(3-hydroxy-3-methyl-butyl)-18-methyl-7-oxa-10,13,18,19-tetrazapentacyclo[15.6.1.1^2,6.1^8,11.0^20,24]hexacosa-1(23),2(26),3,5,17(24),19,21-heptaen-12-one]: the IC50 in series [1] came to 8.6 nM; in the series on STING (IFN-β in hPBMC), 708 nM. For the same compound, the “Clearance of human microsome” value in series [2] was determined as 15.6 mL/min/kg.
